Like-named read-outs stand apart in the source and are kept apart here.
Key:
right auricle muscle = test: Heart rates (beats) of right auricle muscle excised from rats; parameters: species or system rat; conditions: vehicle control:100%
Description: (§1) Immediately after Sprague-Dawley rats (female or male) were anaesthetized with pentobarbital sodium (50 mg/kg, i.m.), the thorax was opened to excise the heart. The heart was submerged in Krebs solution, and left auricle muscle and right auricle muscle were then isolated. The left auricle muscle was placed in an organ bath for recording of contractile force, and applied with electrical field stimulation (voltage 10% higher than threshold voltage, 1 Hz frequency, 5 ms duration). In the case of right auricle muscle, which contracts spontaneously, the number of continuous beats was recorded. In this experiment, to measure contractile fore of the two auricle muscles, the organ bath was warmed to 37° C., and as a physiological solution, Krebs solution (119.8 mM NaCl, 4.6 mM KCl, 2.5 mM CaCl2, 1.2 mM MgCl2, 25 mM NaHCO3, 1.2 mM KH2PO4, 10 mM glucose, 1 mM EDTA, pH 7.4) was used. The Krebs solution (pH 7.4) was continuously saturated with a gas mixture of 95% O2 and 5% CO2. The auricle muscle was under a tension of 1 g, and Krebs solution was exchanged with fresh solution at intervals of 20 minutes while equilibrium was maintained during a recording period of 60 minutes.

left auricle muscle = test: Contractile force of left auricle muscle excised from rats; parameters: species or system rat; conditions: vehicle control:100%
Description: as §1

[1] = tested on: RAW 264.7 macrophage cells; test: Nitric oxide production in macrophage cell stimulated by LPS (Griess); type: cell-based; conditions: LPS 1 μg/ml
Description: RAW 264.7 macrophage cells were plated on 100 mm culture dishes at a density of 1-2×10^5 cells. Thereafter, the said macrophage cell was incubated in DMEM medium containing 10% fetal calf serum (heat-inactivated), 100 U/ml penicillin, and […] streptomycin in a CO2 incubator. The said macrophage cell was incubated therein confluently. The said incubated macrophage cells were transferred to serum-free DMEM medium, and further incubated therein for about 24 hours. Thereafter, macrophage cells were stimulated with LPS (1 μg/ml) for about 8 hours. (In this progress, experimental group was divided into two groups, group to which the compound was administered, and group to which the compound was not.) Then, nitrite quantification was achieved by performing calorimetric reaction for produced nitrite with Griess reagent and then measuring absorbance at 550 nm, while using NaNO2 as a standard.

LPS-injected rat [2] = test: Serum/plasma level of nitrate/nitrite (NOx) in LPS-injected rat; type: in vivo; conditions: 10 mg/kg compound; LPS 20 mg/kg
Description: The rats were divided into three groups; (1) LPS-injected group (LPS was administered to abdominal cavity in an amount of 20 mg/kg), (2) enantiomer-injected group (LPS+the compounds represented by formula 3 to 8 was administered to abdominal cavity) or (3) saline solution-injected group. After administration of LPS, the rats were anaesthetized with pentobarbital. The blood was collected from rats by using heart punching. The plasma level of nitrite was measured by using the nitrate reductase derived from Aspergillus species, where the nitrate was reduced by enzyme. Particularly, the plasma was diluted with distilled water in a ratio of 1:10. Analysis buffering solution (KH2PO4 50 Mm, NADPH 0.6 Mm, FAD 5 Mm and nitrate reductase 10 U/ml, Ph 5.5) was added to the said plasma. Thereafter, the reaction was accomplished at 37° C. for 30 min. The plasma level of nitrite was measured by using sodium nitrite as a standard, and Griess solution. Standard curve to nitrite was calculated from the result derived from incubation in analysis buffering solution.

rat PRP = conditions: epinephrine; from Yun-Choi et al. 2001; read-out: IC50 platelet aggregation, epinephrine, racemic mixture; cited from earlier work
Rat Thoracic Aortas = test: Relaxation of rat thoracic aortas contracted by phenylephrine; conditions: 0.1 μM phenylephrine contraction
Description: Experimental group was divided into two groups, group containing endothelial cells of blood vessel and group not containing. Blood vessel of thoracic aortas was induced to contract by treatment with 0.1 μM of phenyleprine under tension of 1 g. Upon arriving at equilibrium, the enantiomers were added to an organ bath in a cumulative manner. Relaxation of thoracic aortas was recorded using a physiograph (Grass P7), calculating their response to the compounds with consideration of their added amount.

LPS-injected rat [3] = conditions: from Kang et al. 1999; cited from earlier work
Sprague-Dawley rats = test: Acute toxicity in rat (LD50); type: in vivo; conditions: for LD50, Intraperitioneal injection: single intraperitoneal injection; for LD50, Intravenous injection: single intravenous injection
Description: (§2) Sprague-Dawley rats (six weeks) were used as test sample. Each group was comprised of two rats. […] The said emulsion was administered to two rats one times using intravenous injection and intraperitoneal injection.

[4] = Acute toxicity in rat (LD50); type: in vivo; conditions: Sprague-Dawley, in vivo
Description: as §2

[5] = group containing endothelial cells, read-out: IC50 (E+), concentration showing relaxation response of 50%
[6] = group not containing endothelial cells, read-out: IC50 (E−), concentration showing relaxation response of 50%

SMILES: Oc1ccc(CC2NCCc3cc(O)c(O)cc32)cc1 (racemic) [Racemic mixture of formula 3 and formula 4, higenamine, reference compound]
- Heart Rates of Auricle Muscles (right auricle muscle; 1 × 10^−4 M): 200%
- Heart Rates of Auricle Muscles (right auricle muscle; 1 × 10^−5 M): 140%
- Heart Rates of Auricle Muscles (right auricle muscle; 1 × 10^−6 M): 115%
- Heart Rates of Auricle Muscles (right auricle muscle; 1 × 10^−7 M): 110%
- Heart Rates of Auricle Muscles (right auricle muscle; 3 × 10^−5 M): 160%
- Heart Rates of Auricle Muscles (right auricle muscle; 3 × 10^−6 M): 125%
- Heart Rates of Auricle Muscles (right auricle muscle; 3 × 10^−7 M): 110%
- Contractile Force of Auricle Muscles (left auricle muscle; 1 × 10^−4 M): 300%
- Contractile Force of Auricle Muscles (left auricle muscle; 1 × 10^−5 M): 260%
- Contractile Force of Auricle Muscles (left auricle muscle; 1 × 10^−6 M): 180%
- Contractile Force of Auricle Muscles (left auricle muscle; 1 × 10^−7 M): 115%
- Contractile Force of Auricle Muscles (left auricle muscle; 3 × 10^−5 M): 280%
- Contractile Force of Auricle Muscles (left auricle muscle; 3 × 10^−6 M): 240%
- Contractile Force of Auricle Muscles (left auricle muscle; 3 × 10^−7 M): 130%
- NO production by LPS in macrophage cell ([1]; compound 10 μM): 21.3 µM
- NO production by LPS in macrophage cell ([1]; compound 50 μM): 14.3 µM
- NO production by LPS in macrophage cell ([1]; compound 100 μM): 15.2 µM
- plasma level of NOx (LPS-injected rat [2]): 75 ± 4 µM
- IC50 (rat PRP): 7.2 µM
- IC50 (Rat Thoracic Aortas; [5]): 9.81 µM
- IC50 (Rat Thoracic Aortas; [6]): 5.61 µM
- survival, racemic mixture (LPS-injected rat [3]): 80%
- LD50, Intraperitioneal injection (Sprague-Dawley rats): 280 mg/kg
- LD50, Intravenous injection (Sprague-Dawley rats): 98 mg/kg

SMILES: Oc1cc2c(cc1O)C(Cc1cccc3ccccc13)NCC2 (racemic) [Racemic mixture of formula 5 and formula 6, 1-α-naphthylmethyl-6,7-dihydroxy-1,2,3,4-tetrahydroisoquioline, reference compound]
- Heart Rates of Auricle Muscles (right auricle muscle; 1 × 10^−4 M): 135%
- Heart Rates of Auricle Muscles (right auricle muscle; 1 × 10^−5 M): 130%
- Heart Rates of Auricle Muscles (right auricle muscle; 1 × 10^−6 M): 120%
- Heart Rates of Auricle Muscles (right auricle muscle; 1 × 10^−7 M): 115%
- Heart Rates of Auricle Muscles (right auricle muscle; 3 × 10^−5 M): 130%
- Heart Rates of Auricle Muscles (right auricle muscle; 3 × 10^−6 M): 120%
- Heart Rates of Auricle Muscles (right auricle muscle; 3 × 10^−7 M): 115%
- Contractile Force of Auricle Muscles (left auricle muscle; 1 × 10^−4 M): 490%
- Contractile Force of Auricle Muscles (left auricle muscle; 1 × 10^−5 M): 400%
- Contractile Force of Auricle Muscles (left auricle muscle; 1 × 10^−6 M): 310%
- Contractile Force of Auricle Muscles (left auricle muscle; 1 × 10^−7 M): 140%
- Contractile Force of Auricle Muscles (left auricle muscle; 3 × 10^−5 M): 430%
- Contractile Force of Auricle Muscles (left auricle muscle; 3 × 10^−6 M): 360%
- Contractile Force of Auricle Muscles (left auricle muscle; 3 × 10^−7 M): 200%
- NO production by LPS in macrophage cell ([1]; compound 10 μM): 31 µM
- NO production by LPS in macrophage cell ([1]; compound 50 μM): 28 µM
- NO production by LPS in macrophage cell ([1]; compound 100 μM): 26 µM
- IC50 (rat PRP): 1.7 µM
- IC50 (Rat Thoracic Aortas; [5]): 0.105 µM
- IC50 (Rat Thoracic Aortas; [6]): 6.41 µM
- survival, racemic mixture (LPS-injected rat [3]): 90%
- LD50, Intraperitioneal injection (Sprague-Dawley rats): 242 mg/kg
- LD50, Intravenous injection (Sprague-Dawley rats): 92 mg/kg

SMILES: Oc1cc2c(cc1O)C(Cc1ccc3ccccc3c1)NCC2 (racemic) [Racemic mixture of formula 7 and formula 8, 1-β-naphthylmethyl-6,7-dihydroxy-1,2,3,4-tetrahydroisoquinoline, reference compound]
- Heart Rates of Auricle Muscles (right auricle muscle; 1 × 10^−4 M): 140%
- Heart Rates of Auricle Muscles (right auricle muscle; 1 × 10^−5 M): 140%
- Heart Rates of Auricle Muscles (right auricle muscle; 1 × 10^−6 M): 125%
- Heart Rates of Auricle Muscles (right auricle muscle; 1 × 10^−7 M): 110%
- Heart Rates of Auricle Muscles (right auricle muscle; 3 × 10^−5 M): 140%
- Heart Rates of Auricle Muscles (right auricle muscle; 3 × 10^−6 M): 135%
- Heart Rates of Auricle Muscles (right auricle muscle; 3 × 10^−7 M): 120%
- Contractile Force of Auricle Muscles (left auricle muscle; 1 × 10^−4 M): 310%
- Contractile Force of Auricle Muscles (left auricle muscle; 1 × 10^−5 M): 250%
- Contractile Force of Auricle Muscles (left auricle muscle; 1 × 10^−6 M): 180%
- Contractile Force of Auricle Muscles (left auricle muscle; 1 × 10^−7 M): 110%
- Contractile Force of Auricle Muscles (left auricle muscle; 3 × 10^−5 M): 270%
- Contractile Force of Auricle Muscles (left auricle muscle; 3 × 10^−6 M): 220%
- Contractile Force of Auricle Muscles (left auricle muscle; 3 × 10^−7 M): 140%
- NO production by LPS in macrophage cell ([1]; compound 10 μM): 45 µM
- NO production by LPS in macrophage cell ([1]; compound 50 μM): 40 µM
- NO production by LPS in macrophage cell ([1]; compound 100 μM): 39 µM
- IC50 (rat PRP): 6.3 µM
- IC50 (Rat Thoracic Aortas; Rattus norvegicus, Endothelial cell, group containing endothelial cells, read-out: IC50 (E+), concentration showing relaxation response of 50%): 8.75 µM
- IC50 (Rat Thoracic Aortas; Rattus norvegicus, Endothelial cell, group not containing endothelial cells, read-out: IC50 (E−), concentration showing relaxation response of 50%): 51.5 µM
- LD50 ([4]; ip, single intraperitoneal injection, read-out: LD50, Intraperitioneal injection): 220 mg/kg
- LD50 ([4]; single intravenous injection, read-out: LD50, Intravenous injection): 84 mg/kg
